# From the supplement of paper PMC12463676, “Small-molecule dissolution of stress granules by redox modulation benefits ALS models” (Nature Chemical Biology, 2025)
# Assays:
# potassium arsenate = compound: O=[As]([O-])(O)O.[K+] [potassium arsenate]; assay: thermal stability z-score vs DMSO; higher = more thermally stabilized by treatment; settings: HeLa; arsenate concentration 1 mM
# Method: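 Cellular thermal proteome profiling in HeLa cells treated with 1 mM arsenate for 1 h (DMSO pretreatment), heated to ten temperatures (37-66.3 °C). Soluble protein was quantified by TMT mass spectrometry relative to DMSO controls; the thermal stability score was transformed to a z-score; mean of n = 3 experiments.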
# lipoamide = compound: NC(=O)CCCCC1CCSS1 [lipoamide]; assay: as above; settings: HeLa, lipoamide concentration 100 µM
# Method: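 Cellular thermal proteome profiling in HeLa cells. Cells were treated with 100 µM lipoamide for 1 h, with or without 1 mM arsenate for a further 1 h, then heated to ten temperatures (37-66.3 °C), and soluble protein was quantified by TMT mass spectrometry relative to 0.1% DMSO controls. The thermal stability score (sum of log2 fold changes minus the abundance score) was transformed to a z-score; mean of n = 3 experiments.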
# [1] = arsenate co-treatment: 1 mM arsenate 1 h
# 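Also: each temperature applied for 3 min, abundance score taken as mean log2 fold change at the two lowest temperatures, z-score obtained by mean subtraction and division by SD.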
# Sequence of UniProt P62714 (P62714 whole entry): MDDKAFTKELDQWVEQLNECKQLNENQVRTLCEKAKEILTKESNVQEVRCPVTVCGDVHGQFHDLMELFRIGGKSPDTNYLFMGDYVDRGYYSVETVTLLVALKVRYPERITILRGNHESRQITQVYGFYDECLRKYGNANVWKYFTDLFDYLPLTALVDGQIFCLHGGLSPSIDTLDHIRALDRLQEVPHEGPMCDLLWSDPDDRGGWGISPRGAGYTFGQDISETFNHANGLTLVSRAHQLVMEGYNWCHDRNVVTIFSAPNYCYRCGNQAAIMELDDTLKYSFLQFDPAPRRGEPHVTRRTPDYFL
# Sequence of UniProt Q9NWB6 (Q9NWB6 whole entry): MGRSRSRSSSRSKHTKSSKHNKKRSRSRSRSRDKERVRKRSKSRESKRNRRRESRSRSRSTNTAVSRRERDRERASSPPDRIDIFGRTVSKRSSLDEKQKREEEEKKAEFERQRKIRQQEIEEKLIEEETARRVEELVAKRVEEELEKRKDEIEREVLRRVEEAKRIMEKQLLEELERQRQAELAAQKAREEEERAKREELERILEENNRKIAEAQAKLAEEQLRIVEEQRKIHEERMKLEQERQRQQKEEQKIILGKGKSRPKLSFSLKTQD
# Sequence of UniProt P12036 (P12036 whole entry): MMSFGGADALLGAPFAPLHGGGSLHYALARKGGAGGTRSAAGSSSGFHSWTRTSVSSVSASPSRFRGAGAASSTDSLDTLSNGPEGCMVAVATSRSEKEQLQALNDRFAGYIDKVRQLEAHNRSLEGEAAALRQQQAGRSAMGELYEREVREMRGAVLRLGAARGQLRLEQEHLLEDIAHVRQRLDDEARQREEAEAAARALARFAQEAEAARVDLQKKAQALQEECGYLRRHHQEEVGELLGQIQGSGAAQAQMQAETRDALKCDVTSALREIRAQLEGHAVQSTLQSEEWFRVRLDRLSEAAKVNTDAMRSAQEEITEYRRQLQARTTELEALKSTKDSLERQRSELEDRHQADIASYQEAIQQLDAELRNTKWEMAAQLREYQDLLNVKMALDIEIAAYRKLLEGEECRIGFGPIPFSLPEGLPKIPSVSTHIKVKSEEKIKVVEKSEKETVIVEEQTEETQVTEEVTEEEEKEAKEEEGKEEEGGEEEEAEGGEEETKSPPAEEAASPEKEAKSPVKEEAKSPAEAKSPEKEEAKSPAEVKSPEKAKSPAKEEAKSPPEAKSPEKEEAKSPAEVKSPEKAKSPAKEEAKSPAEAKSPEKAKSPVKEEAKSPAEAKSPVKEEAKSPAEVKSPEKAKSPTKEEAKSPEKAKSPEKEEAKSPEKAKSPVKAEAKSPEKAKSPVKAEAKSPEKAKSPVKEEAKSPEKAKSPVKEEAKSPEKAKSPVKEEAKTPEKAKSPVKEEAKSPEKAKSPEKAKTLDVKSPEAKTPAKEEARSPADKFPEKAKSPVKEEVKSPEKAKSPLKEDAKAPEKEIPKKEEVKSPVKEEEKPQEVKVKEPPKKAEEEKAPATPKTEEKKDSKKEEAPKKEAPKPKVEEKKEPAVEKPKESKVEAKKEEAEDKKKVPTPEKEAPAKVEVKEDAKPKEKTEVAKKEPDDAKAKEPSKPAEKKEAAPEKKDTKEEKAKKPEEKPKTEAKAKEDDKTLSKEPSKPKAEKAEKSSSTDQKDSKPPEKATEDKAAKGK
# Sequence of UniProt Q9BRA2 (Q9BRA2 whole entry): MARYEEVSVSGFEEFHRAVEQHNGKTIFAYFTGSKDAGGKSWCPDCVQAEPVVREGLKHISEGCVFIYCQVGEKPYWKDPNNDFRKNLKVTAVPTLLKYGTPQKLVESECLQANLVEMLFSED
# Sequence of UniProt Q6P2P2 (Q6P2P2 whole entry): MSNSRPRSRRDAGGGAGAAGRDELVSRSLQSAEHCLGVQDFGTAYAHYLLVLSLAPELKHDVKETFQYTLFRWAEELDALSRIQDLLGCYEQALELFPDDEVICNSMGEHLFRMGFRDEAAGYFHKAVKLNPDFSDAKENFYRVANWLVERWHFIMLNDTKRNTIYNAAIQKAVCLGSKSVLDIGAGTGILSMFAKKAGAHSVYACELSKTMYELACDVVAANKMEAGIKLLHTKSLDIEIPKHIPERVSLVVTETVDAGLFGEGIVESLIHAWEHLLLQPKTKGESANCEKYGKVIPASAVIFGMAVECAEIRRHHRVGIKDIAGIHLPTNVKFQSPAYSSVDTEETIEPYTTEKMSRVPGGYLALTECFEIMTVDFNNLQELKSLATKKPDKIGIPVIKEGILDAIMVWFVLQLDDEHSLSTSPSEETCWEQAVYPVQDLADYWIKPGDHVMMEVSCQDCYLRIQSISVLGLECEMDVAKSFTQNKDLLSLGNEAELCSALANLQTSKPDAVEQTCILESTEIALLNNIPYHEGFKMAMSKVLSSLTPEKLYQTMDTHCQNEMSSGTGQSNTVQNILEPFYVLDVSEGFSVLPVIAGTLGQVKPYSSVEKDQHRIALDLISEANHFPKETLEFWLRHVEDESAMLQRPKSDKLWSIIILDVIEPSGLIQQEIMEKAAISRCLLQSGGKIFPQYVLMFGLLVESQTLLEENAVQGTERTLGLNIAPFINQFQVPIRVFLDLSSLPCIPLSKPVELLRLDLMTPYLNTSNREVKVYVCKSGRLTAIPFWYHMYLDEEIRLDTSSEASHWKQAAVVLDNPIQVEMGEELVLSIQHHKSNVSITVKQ
# Sequence of UniProt Q9NSD9 (Q9NSD9 whole entry): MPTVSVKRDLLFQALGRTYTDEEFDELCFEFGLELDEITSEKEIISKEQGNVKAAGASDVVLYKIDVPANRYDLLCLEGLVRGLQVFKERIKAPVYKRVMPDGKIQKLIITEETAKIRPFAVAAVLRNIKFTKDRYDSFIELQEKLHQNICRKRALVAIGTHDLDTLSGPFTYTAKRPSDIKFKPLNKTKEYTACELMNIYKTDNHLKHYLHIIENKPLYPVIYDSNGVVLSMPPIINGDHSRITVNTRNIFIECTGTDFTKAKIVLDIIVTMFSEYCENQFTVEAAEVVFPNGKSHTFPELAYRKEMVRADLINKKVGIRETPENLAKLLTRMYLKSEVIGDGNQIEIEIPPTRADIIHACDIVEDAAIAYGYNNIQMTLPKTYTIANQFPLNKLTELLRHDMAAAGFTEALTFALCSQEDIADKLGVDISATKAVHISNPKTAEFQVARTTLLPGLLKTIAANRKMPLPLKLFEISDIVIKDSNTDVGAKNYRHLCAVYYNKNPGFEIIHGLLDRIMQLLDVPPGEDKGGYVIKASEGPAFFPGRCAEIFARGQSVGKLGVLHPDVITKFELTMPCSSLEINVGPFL
# Sequence of UniProt Q9UGR2 (Q9UGR2 whole entry): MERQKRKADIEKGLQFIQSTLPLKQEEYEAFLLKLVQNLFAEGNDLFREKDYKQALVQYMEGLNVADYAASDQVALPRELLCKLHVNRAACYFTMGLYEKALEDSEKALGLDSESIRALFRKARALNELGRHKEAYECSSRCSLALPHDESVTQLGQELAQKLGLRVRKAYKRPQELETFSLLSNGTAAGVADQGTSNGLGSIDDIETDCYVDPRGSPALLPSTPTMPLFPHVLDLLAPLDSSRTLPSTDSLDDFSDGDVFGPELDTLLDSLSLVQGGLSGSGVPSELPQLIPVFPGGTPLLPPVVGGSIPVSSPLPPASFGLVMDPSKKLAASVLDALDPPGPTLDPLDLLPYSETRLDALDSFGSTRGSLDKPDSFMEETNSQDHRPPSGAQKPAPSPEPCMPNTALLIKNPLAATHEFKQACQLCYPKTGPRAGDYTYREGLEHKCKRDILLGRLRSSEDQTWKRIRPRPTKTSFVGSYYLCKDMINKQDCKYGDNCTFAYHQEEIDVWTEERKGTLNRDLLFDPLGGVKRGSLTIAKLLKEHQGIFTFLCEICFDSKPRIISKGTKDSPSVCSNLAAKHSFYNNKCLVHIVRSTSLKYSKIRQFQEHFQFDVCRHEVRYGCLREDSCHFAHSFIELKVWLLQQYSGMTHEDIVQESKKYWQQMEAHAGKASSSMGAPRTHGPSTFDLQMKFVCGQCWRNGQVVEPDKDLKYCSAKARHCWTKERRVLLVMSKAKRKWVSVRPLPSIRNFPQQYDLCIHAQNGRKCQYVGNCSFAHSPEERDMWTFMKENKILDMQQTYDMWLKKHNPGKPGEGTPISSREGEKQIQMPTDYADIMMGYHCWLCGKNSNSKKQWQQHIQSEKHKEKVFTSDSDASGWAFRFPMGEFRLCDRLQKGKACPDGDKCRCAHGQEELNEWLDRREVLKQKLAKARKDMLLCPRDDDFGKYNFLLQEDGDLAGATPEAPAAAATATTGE
# Sequence of UniProt Q8NEL9 (Q8NEL9 whole entry): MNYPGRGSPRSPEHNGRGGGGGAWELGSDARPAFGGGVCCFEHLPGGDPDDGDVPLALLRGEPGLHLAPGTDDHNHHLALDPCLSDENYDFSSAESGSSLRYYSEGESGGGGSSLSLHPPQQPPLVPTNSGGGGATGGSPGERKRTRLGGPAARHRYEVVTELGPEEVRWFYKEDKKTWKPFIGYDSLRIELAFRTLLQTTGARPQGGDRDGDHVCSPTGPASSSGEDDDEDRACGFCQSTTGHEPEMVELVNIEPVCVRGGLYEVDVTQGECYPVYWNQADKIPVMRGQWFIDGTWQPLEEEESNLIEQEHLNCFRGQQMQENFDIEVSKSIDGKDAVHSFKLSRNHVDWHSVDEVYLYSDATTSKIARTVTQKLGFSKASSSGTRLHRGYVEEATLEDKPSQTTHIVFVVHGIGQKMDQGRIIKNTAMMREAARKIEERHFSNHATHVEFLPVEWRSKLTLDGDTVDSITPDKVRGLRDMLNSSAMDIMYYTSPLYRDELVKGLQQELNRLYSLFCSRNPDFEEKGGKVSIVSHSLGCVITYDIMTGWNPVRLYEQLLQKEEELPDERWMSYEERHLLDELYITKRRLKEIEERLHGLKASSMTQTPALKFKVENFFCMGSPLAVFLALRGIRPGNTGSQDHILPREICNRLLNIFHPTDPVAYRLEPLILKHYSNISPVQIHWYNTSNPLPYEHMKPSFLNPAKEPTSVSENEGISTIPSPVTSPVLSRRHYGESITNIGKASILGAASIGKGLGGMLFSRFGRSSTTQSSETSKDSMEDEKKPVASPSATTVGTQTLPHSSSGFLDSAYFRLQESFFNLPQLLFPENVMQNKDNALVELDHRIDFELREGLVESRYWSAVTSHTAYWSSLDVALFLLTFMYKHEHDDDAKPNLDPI
Target,thermal stability z-score (potassium arsenate),thermal stability z-score (lipoamide; [1]),thermal stability z-score (lipoamide; arsenate co-treatment: none)
PPP2CB (UniProt P62714),-0.474,0.564,0.167
DDHD1 (UniProt Q8NEL9),0.0595,-0.143,-0.142
RAC1 (UniProt P63000),0.562,0.154,-0.0299
TXNDC17 (UniProt Q9BRA2),0.728,0.493,0.408
TMEM173 (UniProt Q86WV6),-0.0763,0.0822,-0.0914
FBXO30 (UniProt Q8TB52),-0.959,-0.102,-0.208
RPP30 (UniProt P78346),-1.55,-0.9,-0.668
DCTN6 (UniProt O00399),-0.333,-0.771,-0.761
SSFA2 (UniProt P28290),-0.392,-0.0444,-0.00989
CRIM1 (UniProt Q9NZV1),-2.04,-2.84,-1.95
STMN1 (UniProt P16949),0.78,1.14,1.18
TPBG (UniProt Q13641),-0.766,-0.727,-0.884
FARSB (UniProt Q9NSD9),0.893,0.262,-0.0911
CASC4 (UniProt Q6P4E1),0.0247,0.245,0.111
ZC3H7B (UniProt Q9UGR2),-0.647,-0.082,-0.0985
ARGLU1 (UniProt Q9NWB6),-0.658,0.406,0.211
NEFH (UniProt P12036),0.4,-0.156,-0.292
DIAPH3 (UniProt Q9NSV4),-0.0767,-1.4,-0.761
IVNS1ABP (UniProt Q9Y6Y0),-0.145,0.601,0.743
TADA3 (UniProt O75528),0.199,0.0748,0.099
PRMT9 (UniProt Q6P2P2),0.171,0.25,0.0769
MBNL1 (UniProt Q9NR56),-0.983,-0.368,-0.277
UCHL5 (UniProt Q9Y5K5),0.855,0.0058,0.138
KPNA4 (UniProt O00629),0.399,0.791,0.48
HACD1 (UniProt B0YJ81),-0.388,-0.754,-1.15
USP47 (UniProt Q96K76),0.244,-0.439,-0.436
GTF3C2 (UniProt Q8WUA4),-0.411,0.112,0.0176
TJP2 (UniProt Q9UDY2),0.438,-0.259,-0.231
TWISTNB (UniProt Q3B726),-1.57,-0.926,0.0342
PHF3 (UniProt Q92576),-0.848,1.05,0.76
